molecular target: VIM-2 (Escherichia coli, UniProt Q5U7L7); experiment: Enzyme inhibition assay, MβL VIM-2, cefazolin as substrate; assay type: biochemical; details: 25 °C, 30 min premix
Method: (§1) To test the inhibitory activity of compounds 1–12 against MβLs, three representative MβLs, VIM-2 (B1), ImiS (B2), and L1 (B3), were chosen for evaluation.
(§2) The enzyme inhibition activity assay was carried out on an Agilent-8453 UV-visible spectrometer. […] Cefazolin (Sigma-Aldrich, Burlington, MO, USA), with a concentration of 20 to 140 μM, was taken as the substrate. The enzyme and inhibitor were premixed with the corresponding MβL and the thiazolethioacetamides for 30 min. The IC50 values were measured at 25 °C with the inhibitor concentrations of 0 and 1000 μM, and analyzed through IC50 calculation tool (AAT Bioquest Inc., sunnyvale, CA, USA).

SMILES | IC50
O=C(CSc1nnc(-c2ccccc2O)s1)Nc1ccc(OC(F)(F)F)cc1 [Compound 8] | 2200 nM
O=C(CSc1nnc(-c2ccccc2O)s1)Nc1c(F)cccc1F [Compound 12] | 19200 nM

molecular target: ImiS (Aeromonas veronii, UniProt O31272); experiment: Enzyme inhibition assay, MβL ImiS, cefazolin as substrate; assay type: biochemical; details: 25 °C, 30 min premix
Method: as §1, §2

Chain of ImiS (O31272 entry or part of it): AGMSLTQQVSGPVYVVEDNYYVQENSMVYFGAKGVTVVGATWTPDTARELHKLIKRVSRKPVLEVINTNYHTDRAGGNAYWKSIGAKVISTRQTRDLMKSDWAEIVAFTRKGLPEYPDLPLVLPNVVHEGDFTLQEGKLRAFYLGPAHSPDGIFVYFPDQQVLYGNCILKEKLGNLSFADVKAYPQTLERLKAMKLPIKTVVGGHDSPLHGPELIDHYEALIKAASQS

SMILES | IC50
O=C(CSc1nnc(-c2ccccc2O)s1)Nc1ccc(Cl)cc1 [Compound 1] | 580 nM
O=C(CSc1nnc(-c2ccccc2O)s1)Nc1cccc(Cl)c1 [Compound 2] | 530 nM
O=C(CSc1nnc(-c2ccccc2O)s1)Nc1ccc(Cl)c(Cl)c1 [Compound 3] | 690 nM
O=C(CSc1nnc(-c2ccccc2O)s1)Nc1ccc(Cl)cc1Cl [Compound 4] | 580 nM
O=C(CSc1nnc(-c2ccccc2O)s1)Nc1ccc(Cl)cc1[N+](=O)[O-] [Compound 5] | 170 nM
O=C(CSc1nnc(-c2ccccc2O)s1)Nc1cc(Cl)ccc1[N+](=O)[O-] [Compound 6] | 360 nM
O=C(CSc1nnc(-c2ccccc2O)s1)Nc1ccc([N+](=O)[O-])cc1Cl [Compound 7] | 420 nM
O=C(CSc1nnc(-c2ccccc2O)s1)Nc1ccc(OC(F)(F)F)cc1 [Compound 8] | 310 nM
O=C(CSc1nnc(-c2ccccc2O)s1)Nc1ccc(F)cc1 [Compound 9] | 460 nM
O=C(CSc1nnc(-c2ccccc2O)s1)Nc1cccc(F)c1 [Compound 10] | 610 nM
O=C(CSc1nnc(-c2ccccc2O)s1)Nc1ccccc1F [Compound 11] | 680 nM
O=C(CSc1nnc(-c2ccccc2O)s1)Nc1c(F)cccc1F [Compound 12] | 700 nM

From paper PMC7175138, “Synthesis and Bioactivity of Thiazolethioacetamides as Potential Metallo-β-Lactamase Inhibitors” (Antibiotics, 2020)
